Data as given in ChEMBL document CHEMBL2073790, “TP-search Transporter Database” (Jpn Pharmacol Ther, 1998).

Columns and labels:
[1] = target: T1, Solute carrier organic anion transporter family member 1A1 (Rattus norvegicus, UniProt P46720); experiment: (§1) TP_TRANSPORTER: Northern blot in vivo Wistar rat; format: functional, organism-based
T1 sequence (P46720 whole entry): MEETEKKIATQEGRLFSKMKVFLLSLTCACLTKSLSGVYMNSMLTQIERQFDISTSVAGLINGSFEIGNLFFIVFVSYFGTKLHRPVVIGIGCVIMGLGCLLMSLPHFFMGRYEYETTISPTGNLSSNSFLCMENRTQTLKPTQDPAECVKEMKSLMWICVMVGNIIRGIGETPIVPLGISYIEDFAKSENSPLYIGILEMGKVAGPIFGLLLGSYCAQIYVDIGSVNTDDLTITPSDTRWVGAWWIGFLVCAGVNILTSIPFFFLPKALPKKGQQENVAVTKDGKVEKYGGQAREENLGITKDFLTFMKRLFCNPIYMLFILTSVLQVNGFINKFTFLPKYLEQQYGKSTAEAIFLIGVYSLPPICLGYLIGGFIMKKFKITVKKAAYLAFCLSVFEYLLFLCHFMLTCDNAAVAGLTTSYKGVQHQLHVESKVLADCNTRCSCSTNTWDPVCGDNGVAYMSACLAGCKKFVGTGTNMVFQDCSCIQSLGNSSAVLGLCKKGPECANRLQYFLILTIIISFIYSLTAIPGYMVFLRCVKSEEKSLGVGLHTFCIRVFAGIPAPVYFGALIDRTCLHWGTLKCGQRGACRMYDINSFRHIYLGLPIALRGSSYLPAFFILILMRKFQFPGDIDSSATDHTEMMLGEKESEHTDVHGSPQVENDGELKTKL

[2] = target: Multidrug resistance protein 1a (Rattus norvegicus) (UniProt Q6PSM0); experiment: as §1; format: functional, organism-based
Sequence of Multidrug resistance protein 1a (Rattus norvegicus) (Q6PSM0 as listed by the source): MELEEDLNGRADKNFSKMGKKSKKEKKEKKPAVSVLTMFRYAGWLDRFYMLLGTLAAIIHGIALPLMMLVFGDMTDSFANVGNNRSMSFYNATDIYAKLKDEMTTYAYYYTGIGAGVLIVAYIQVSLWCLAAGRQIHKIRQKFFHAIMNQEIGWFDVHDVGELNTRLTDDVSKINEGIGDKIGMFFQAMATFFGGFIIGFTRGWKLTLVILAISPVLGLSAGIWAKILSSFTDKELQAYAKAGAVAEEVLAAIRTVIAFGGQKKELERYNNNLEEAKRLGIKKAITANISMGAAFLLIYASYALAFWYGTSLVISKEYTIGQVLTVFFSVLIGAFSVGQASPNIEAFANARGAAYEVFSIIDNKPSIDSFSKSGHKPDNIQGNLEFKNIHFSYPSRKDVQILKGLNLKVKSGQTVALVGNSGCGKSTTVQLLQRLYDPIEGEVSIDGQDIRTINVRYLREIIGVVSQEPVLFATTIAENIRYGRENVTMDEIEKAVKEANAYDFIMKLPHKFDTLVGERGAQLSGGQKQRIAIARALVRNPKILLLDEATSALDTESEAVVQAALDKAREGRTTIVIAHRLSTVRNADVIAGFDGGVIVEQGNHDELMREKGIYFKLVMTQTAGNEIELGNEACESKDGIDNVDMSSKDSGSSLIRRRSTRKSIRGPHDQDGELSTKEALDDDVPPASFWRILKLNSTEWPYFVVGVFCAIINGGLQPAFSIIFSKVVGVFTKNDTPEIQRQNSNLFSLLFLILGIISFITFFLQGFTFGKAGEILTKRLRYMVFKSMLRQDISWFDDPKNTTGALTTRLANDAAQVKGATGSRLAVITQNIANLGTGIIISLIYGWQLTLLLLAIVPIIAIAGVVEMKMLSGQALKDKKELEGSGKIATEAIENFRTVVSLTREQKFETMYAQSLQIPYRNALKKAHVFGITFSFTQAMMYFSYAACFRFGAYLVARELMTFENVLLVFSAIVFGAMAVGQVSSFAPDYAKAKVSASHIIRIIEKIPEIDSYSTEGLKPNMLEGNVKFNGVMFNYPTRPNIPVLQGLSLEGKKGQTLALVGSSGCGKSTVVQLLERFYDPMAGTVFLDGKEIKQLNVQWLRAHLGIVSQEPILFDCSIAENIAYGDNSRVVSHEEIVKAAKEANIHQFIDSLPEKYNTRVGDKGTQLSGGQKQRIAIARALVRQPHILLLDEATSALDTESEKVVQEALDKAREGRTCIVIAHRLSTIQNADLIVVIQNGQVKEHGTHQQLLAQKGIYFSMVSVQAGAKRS

O=C=Nc1cccc2ccccc12 [alpha-naphthylisocyanate]
Activity [1]: inducer [+] | Activity [2]: inducer [+]
